These results are taken from EP0159254A1, “Derivatives of omega-mercaptopropanamide and their salts, their preparation, their use as medicines and compositions containing them” (ROUSSEL-UCLAF, priority 1984, dated 1985).

The assay addresses T1, enképhalinase (Rattus norvegicus, UniProt P07861).
T1 construct: L'activité de l'enképhalinase est déterminée dans une fraction membranaire de striatum de rat; from tissue; host or cells: rat striatum, particulate (membrane) fraction
T1 sequence (P07861 1-750): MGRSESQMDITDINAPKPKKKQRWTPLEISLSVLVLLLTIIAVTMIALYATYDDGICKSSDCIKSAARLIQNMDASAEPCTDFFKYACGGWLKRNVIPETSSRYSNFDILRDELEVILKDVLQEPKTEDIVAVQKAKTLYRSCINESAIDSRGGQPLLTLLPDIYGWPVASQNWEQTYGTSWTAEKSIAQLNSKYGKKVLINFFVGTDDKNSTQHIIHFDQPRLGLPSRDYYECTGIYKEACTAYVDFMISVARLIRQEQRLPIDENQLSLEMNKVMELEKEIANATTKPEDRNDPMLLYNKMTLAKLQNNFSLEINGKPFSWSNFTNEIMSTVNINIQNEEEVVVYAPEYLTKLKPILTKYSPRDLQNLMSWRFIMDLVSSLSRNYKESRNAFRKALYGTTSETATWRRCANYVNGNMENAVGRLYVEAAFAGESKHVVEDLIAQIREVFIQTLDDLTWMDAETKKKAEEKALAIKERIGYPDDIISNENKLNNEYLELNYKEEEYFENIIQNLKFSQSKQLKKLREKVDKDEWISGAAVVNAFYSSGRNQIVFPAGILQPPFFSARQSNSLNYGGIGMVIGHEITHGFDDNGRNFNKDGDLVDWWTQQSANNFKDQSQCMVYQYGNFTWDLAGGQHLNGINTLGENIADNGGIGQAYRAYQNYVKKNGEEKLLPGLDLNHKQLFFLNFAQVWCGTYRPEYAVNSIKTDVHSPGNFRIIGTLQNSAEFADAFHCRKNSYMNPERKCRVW
In words: Enkephalinase assay and determination of the effect of inhibitors (hydrolysis of tritiated leucine-enkephalin). Type of assay: biochemical. To be noted: membrane fraction of rat striatum; 20 nanomoles tritiated leucine-enkephalin, 1 mM puromycin, TRIS buffer, 15 min at 25°C; read-out: Inhibition de l'enképhalinase CI 50. As to the method: 1) Dosage de l'enképhalinase et détermination de l'effet des inhibiteurs.
L'activité de l'enképhalinase est déterminée dans une fraction membranaire de striatum de rat.
Les striatum sont prélevés sur glace et homogénéisés en tampon TRIS 0.05M pH 7,4 (20 fois le volume). Après une première centrifugation à 1000 g, la fraction particulaire est obtenue à la suite de deux centrifugations de 10 minutes à 20 000 g. Le culot est ensuite mis en suspension dans un tampon TRIS et conservé à 4°C. Le dosage des protéines est effectué selon la méthode au bleu de Comassie.
Après une préincubation de 15 minutes à 25°C, une aliquote de protéines est incubée pendant 15 minutes à 25°C en présence de 20 nanomoles de leucine-enképhaline tritiée (sur le premier acide aminé) préalablement purifiée, d'1 mM de puromycine et du produit à tester en tampon TRIS. La réaction d'hydrolyse est stoppée par addition d'acide chlorhydrique 0,2N et l'incubat subit une déprotéinisation par la chaleur (15 minutes à 95°C).
Les métabolites tritiés obtenus par hydrolyse sont séparés de l'enképhaline par chromatographie sur colonne de porapak Q : ils sont élués avec du tampon TRIS tandis que l'enképhaline est retenue sur la colonne et recueillie ensuite en phase éthanolique.
L'activité des différents produits est exprimée en concentrations inhibitrices 50 %.

Consider `O=C(NC1CCCCC1)C(CS)Cc1ccccc1` (stereo not drawn) [Exemple 2, N-cyclohexyl α-(mercaptométhyl) benzène propanamide], for which the IC50 came to 100 nM.

For the compound `O=C(NCCc1ccccc1)C(CS)Cc1ccccc1` (stereo not drawn) [Exemple 8, α -(mercaptométhyl) N-(2-phényl éthyl) benzène propanamide], the IC50 was found to be 1000 nM.

Regarding `O=C(NCc1ccncc1)C(CS)Cc1ccccc1` (stereo not drawn) [Exemple 24, Chlorhydrate d'α-(mercaptométhyl) N-/(pyridin-4-yl) méthyl/ benzène propanamide], the IC50 amounted to 80 nM.

As to `O=C(NCc1ccccn1)C(CS)Cc1ccccc1` (stereo not drawn) [Exemple 26, Chlorhydrate d'α-(mercaptométhyl) N-/(Pyridin-2-yl) méthyl/benzène propanamide], the IC50 amounted to 100 nM.

Consider “Chlorhydrate d'α-(mercaptométhyl) N-/(pyridin-3-yl) méthyl/ benzène propanamide [Exemple 22]”, for which the IC50 was found to be 80 nM.
